Data as given in a melting point compilation (Tetko et al.; mined from patent text by program, amines drawn as free bases though some values may be those of a salt).

`CC(C)(C)OC(=O)N1CCN(Cc2ccc(Cl)c(Cl)c2)CC1` gave a melting point of 75 to 76 °C.
`NC(=O)c1nc(-c2cccc(O)c2)nc2c1[nH]c(=O)n2CC1CCOCC1` showed a melting point of 363 to 365 °C.
In the case of `COc1ccc(Cl)cc1C(=O)NCc1ccc(CC(=O)O)cc1`, the melting point was 140 to 141 °C.
With `CCOC(=O)C1C(=O)c2cc(OC)ccc2N=C1c1ccccc1` (configuration not stated) the melting point was 225 to 227 °C.
Molecule `Cc1nnc2n1N=C(c1ccc3c(c1)NC(=O)CO3)C(C)(C)S2` has a melting point of 249 to 250 °C.
For `O=C1NCCN1c1ccc(C(F)(F)F)cc1`, the melting point was 169 to 171 °C.
`Cn1cc(-c2cc3cccnc3[nH]2)c2cc(N)ccc21` showed a melting point of 247 to 248 °C.
Work on `CC(C)(C)OC(=O)N[C@@]1(C(=O)OC(C)(C)C)C[C@@H](F)[C@H]2[C@H](C(=O)OC(C)(C)C)[C@H]21` yielded a melting point of 140 to 143 °C.
Molecule `CC(=O)OC1CCC2(C)C(=CCC3C4=CCC(C(C)=O)C4(C)CCC32)C1` (configuration not stated) has a melting point of 205 to 208 °C.
For `CC(O)C1CCCCCCCCCCC1` (configuration not stated), the melting point was 35 °C.
Work on `CC12CCC(C(=Cc3ccc(OCCO)cc3)C1=O)C2(C)C` (configuration not stated) yielded a melting point of 68 °C.
With `OC(CCc1ccc(Cl)s1)Cn1ccnc1` (configuration not stated) the melting point was 82 to 84.5 °C.
In the case of `O=C1CCC(N2Cc3c(OCc4ccc(CN5CCN(c6ccccn6)C(=O)C5)cc4)cccc3C2=O)C(=O)N1` (configuration not stated), the melting point was 224 to 226 °C.
`O=C(O)CNC(=O)COc1c(F)cc(CSCCNS(=O)(=O)c2ccc(Cl)cc2)cc1F` gave a melting point of 140 °C.
Work on `Cc1cc(C(N)=O)ncc1C(SCCC=C(F)F)c1c(F)ccc(F)c1F` (configuration not stated) yielded a melting point of 97 to 98 °C.
For `CC(=O)Oc1c(Cl)c(C)nc(C)c1-c1ccc(Oc2ccc(OC(F)(F)F)cc2)cc1`, the melting point was 78 to 80 °C.
`C[C@@H]([C@@H](O)c1ccc(O)cc1)N1CCC(O)(c2ccccc2)CC1` (relative stereo) gave a melting point of 202 to 204 °C.
`COc1cc(COc2nn(-c3ccccc3)cc2/C=C/C2=NCCO2)ccc1OCc1nc(-c2ccco2)oc1C` showed a melting point of 162 to 163 °C.
Work on `COC(=O)C(Cc1ccc(OCCc2nc(-c3ccccc3)oc2C)cc1)C(=O)NC(C)=O` (configuration not stated) yielded a melting point of 126 to 128 °C.
`CC(C)(C)OC(=O)Nc1ccc(NC(=O)C(=O)N2CCC(Cc3ccccc3)CC2)cc1` showed a melting point of 177 to 179 °C.
For `Cc1c(C(=O)C(N)=O)c2c(OCC(=O)O)cccc2n1Cc1ccccc1`, the melting point was 218 to 220 °C.
Molecule `CCC1(CCCCN2CCN(c3ccccn3)CC2)C(=O)Nc2ccc(Br)cc21` (configuration not stated) has a melting point of 114 to 115 °C.
`CCOC(=O)C1=C(C)N=C(SCc2ccc(OC)cc2)N(S(=O)(=O)c2ccccc2)C1c1cccc([N+](=O)[O-])c1` (configuration not stated) showed a melting point of 86 to 88 °C.
Molecule `CC(=O)c1ccc2c(c1)C1(C)C3(C)CCC(C3)C1(C)O2` (configuration not stated) has a melting point of 140 to 142 °C.
`O=Cc1cc2n(n1)-c1ccc(Cl)cc1C(c1ccccc1)=NC2` gave a melting point of 170 to 172 °C.
`C[C@]12CCC(=O)N[C@@H]1CCc1cc(-c3ccc([N+](=O)[O-])cn3)ccc12` showed a melting point of 123 to 124 °C.
Molecule `O=C(O)c1ccc(Oc2ccc(Oc3ccccc3)cc2)cc1` has a melting point of 185 °C.
With `CCOc1ccc(C2=NN(CCCCOc3ccc(C4=NNC(=O)CC4C)cc3)C(=O)C3CC=CCC23)cc1OCC` (configuration not stated) the melting point was 73 to 78 °C.
`COc1cc(-c2nc(=O)c3ccccc3s2)ccn1` gave a melting point of 149 to 150 °C.
Molecule `COCCOc1ccc(O)c(C(=O)O)c1` has a melting point of 115 to 116 °C.
Molecule `COc1cc2nccc(CC(=O)O)c2cc1OC` has a melting point greater than 250 °C.
Work on `CCOC(=O)Cc1sc(Sc2cc(C(F)(F)F)ccn2)nc1C` yielded a melting point of 57 to 59 °C.
Molecule `COc1ccc(C2CCN(c3c(C)c(C)c4c(c3C)[C@@H](c3ccc(C)cc3)C(C)(C)O4)CC2)cc1OC` has a melting point of 102 to 106 °C.
Molecule `C[C@@H]1N=C(c2ccccc2)c2cc(NC(=O)CCCCCCC(=O)O)ccc2N(C)C1=O` has a melting point of 87 to 88 °C.
For `OC1CSC(Oc2cccnc2-c2cccnc2)C(O)C1O` (configuration not stated), the melting point was 80 °C.
Molecule `CC1(C)COc2ccc(Cl)cc21` has a melting point of 64 to 66 °C.
With `CN1Cc2c(C(=O)NN)ncn2-c2ccccc2C1=O` the melting point was 312 to 313 °C.
Molecule `N[C@H]1CCCC[C@H]1Nc1cc2c(cc1F)c(=O)c(C(=O)O)cn2C1CC1` (relative stereo) has a melting point of 270 to 274 °C.
`COc1cc2nc(N)nc(-c3ccc(C)c(Br)c3Br)c2cc1OC` showed a melting point of 233 to 236 °C.
For `C[C@H](O)c1nnc(-c2ccc3occ(-c4ccc(S(C)(=O)=O)cc4)c3c2)o1`, the melting point was 175 to 176 °C.
For `CN(C)CCc1c[nH]c2ccc(CCS(=O)(=O)Nc3ccccc3)cc12`, the melting point was 144 to 146 °C.
Work on `CN(C)c1ccc(-c2cc(F)c(F)cc2-c2ccc(S(C)(=O)=O)cc2)cc1Cl` yielded a melting point of 129 to 130 °C.
In the case of `CCN(CC)C(=O)c1c(C(=O)c2cc3cnccc3n2S(=O)(=O)c2ccccc2)ccnc1OC`, the melting point was 150 °C.
`Cc1cc(S(=O)(=O)Nc2ccc(Cl)cc2)c2c(C)ccc(C(C)C)cc1-2` showed a melting point of 134 to 135 °C.
Work on `O=C(Nc1ccc(Cl)c(Cl)c1)c1c(O)c2ccccc2oc1=O` yielded a melting point of 227 to 228 °C.
Work on `CCC1(CC)C(=O)Nc2ccc(-c3cccc(Cl)c3)cc21` yielded a melting point of 156 to 159 °C.
Molecule `CC(O)COc1cccc(N)c1C(N)=O` (configuration not stated) has a melting point of 115 to 118 °C.
`CCC(CC)CNC(=O)c1ccc2cccc(Cc3ccc(C(=O)NS(=O)(=O)c4ccccc4)cc3OC)c2c1` gave a melting point of 210 to 211 °C.
`CCc1nnc(-c2ccc(OC)c(OC)c2)n1-c1ccc(OC)cc1` showed a melting point of 148 °C.
`Cc1ccc(S(=O)(=O)n2ccc(-c3ccc(F)cc3)c2-c2ccc(S(C)(=O)=O)cc2)cc1` showed a melting point of 228 to 229 °C.
Work on `COc1cn(C)c(=O)c(O)n1` yielded a melting point of 201 to 204 °C.
In the case of `COCCOc1ccc(NC(=O)OCc2ccccc2)cc1C(=O)O`, the melting point was 130 to 131 °C.
`O=C1Nc2c(cc(F)c(F)c2F)C1=O` showed a melting point of 193 to 194 °C.
Molecule `O=C(O)c1c[n+]([O-])cc2ccccc12` has a melting point of 280 to 283 °C.
In the case of `Oc1cc(OCc2ccccn2)ccc1/C=C/c1cc(/C=C/c2ccc3cc[nH]c3c2)n[nH]1`, the melting point was 202 to 204 °C.
Molecule `CC1(C)CCc2c(N3CCCC3)nc3sc4c(NCCN5CCOCC5)ncnc4c3c2C1` has a melting point of 173 to 174 °C.
Work on `COc1cc(OC)nc(C2(C#N)OC(=O)c3c(-c4ccccc4)ccnc32)n1` (configuration not stated) yielded a melting point of 196 to 198 °C.
`CC(=O)Nc1nc2c(Oc3cc(-c4ccc(C(F)(F)F)cc4NC(=O)[C@@H]4CCN4CC(C)C)ncn3)cccc2s1` showed a melting point of 174 to 175 °C.
`C#CCNC(=O)c1ncn2c1CN(C)C(=O)c1cc(F)ccc1-2` showed a melting point of 205 to 206 °C.
`c1ccc(OCCSCc2nnc(-c3ccc4[nH]ccc4c3)o2)cc1` gave a melting point of 130 to 132 °C.
`CCCc1c(OCC(O)COc2cccc([N+](=O)[O-])c2C#N)ccc(C(C)=O)c1O` (configuration not stated) gave a melting point of 117 to 119 °C.
With `CCN1CC2CCCC2C1CNC(=O)c1cc(Cl)c(N)cc1OC` (configuration not stated) the melting point was 128 to 129 °C.
For `COC(=O)C1=C(C)NC(C)=C(C(=O)OCCOC(=O)c2ccc(NC(C)=O)cc2)C1c1cccc([N+](=O)[O-])c1` (configuration not stated), the melting point was 190 to 193 °C.
`CS(=O)(=O)Nc1cccc(C2=Nc3ccc(-c4ccc(F)cc4)cc3NC(=O)C2)c1` gave a melting point of 232 to 235 °C.
For `CC(C)(C)NCC(=O)NCCn1ccc2ncnc(Nc3ccc(Oc4cccc5sncc45)c(Cl)c3)c21`, the melting point was 178 to 180 °C.
`CNC1C(C)CN(c2c(F)c(N)c3c(=O)c(C(=O)O)cn(C4CC4)c3c2OC)CC1C` (configuration not stated) showed a melting point of 224 to 226 °C.
In the case of `Cc1ccc(C=NNC(=O)OC(C)(C)C)cc1C`, the melting point was 168 to 169 °C.
Molecule `N#Cc1ccc(N(Cc2ccc(OS(N)(=O)=O)c(Cl)c2)n2cnnc2)cc1-c1ccccc1` has a melting point of 201 to 204 °C.
`CCOC(=O)C1C(Cl)C(=O)N1c1ccc(OC)cc1` (configuration not stated) gave a melting point of 99 to 100 °C.
In the case of `C#CCOc1cc(-n2c(OC)nc(C(F)(F)F)cc2=O)c(F)cc1Cl`, the melting point was 108 to 110 °C.
In the case of `CC(O)C(C)N=[N+]([O-])c1ccc(O)cc1` (configuration not stated), the melting point was 124 to 125 °C.
Molecule `CCOC(=O)C1=COc2cc(C(C)(C)C)c(O)cc2O1` has a melting point of 222 °C.
`COC(=O)C(=NOC(F)F)c1ccccc1COc1cc(C)ccc1C` showed a melting point of 61 to 65 °C.
`O=C(O)c1cc(NCc2ccccc2)c(Nc2ccccc2)c(S(=O)(=O)Nc2ccccc2)c1` showed a melting point of 243 °C.
Work on `Nc1ccc(Cn2cnnn2)cc1` yielded a melting point of 138 to 140 °C.
In the case of `CC(Oc1ccc(Cl)nc1Cl)C(=O)O` (configuration not stated), the melting point was 128 to 131 °C.
In the case of `Cc1ccc(-c2ccc(S(C)(=O)=O)cc2)n1-c1ccc(-c2ccoc2)cc1`, the melting point was 200 to 202 °C.
In the case of `Nc1nc2ccc(CO)cc2n1Cc1cccc2cccnc12`, the melting point was 230 °C.
In the case of `O=C(Nc1ccc(Br)cc1CBr)C(F)(F)F`, the melting point was 133 to 135 °C.
Molecule `C[C@@H](c1ccc(-c2cc(=O)n(C)cc2F)cc1)N1CC[C@](CC(C)(C)O)(c2ccccc2)OC1=O` has a melting point of 183 to 184 °C.
For `CCN1C(=O)CC(=O)N(c2ccccc2)c2cc(Cl)ccc21`, the melting point was 220 to 222 °C.
In the case of `COC1c2ccccc2C(=O)N1CCN1CCC(Cc2c[nH]c3ccc(F)cc23)CC1` (racemic), the melting point was 175 °C.
`C=C(CC(=O)O)c1ccc(-c2ccc(F)cc2F)cc1` showed a melting point of 109 to 110 °C.
In the case of `COCCN1CCC(O)(c2cc(F)cc(F)c2)C1` (single isomer, unassigned; (-)), the melting point was 130 to 131 °C.
`CCCn1c(COCC)nc2c(N)nc3ccc(OC4CCN(S(C)(=O)=O)CC4)cc3c21` gave a melting point of 240 to 244 °C.
In the case of `Nc1cc2c(cc1C(=O)CNC(=O)C(F)(F)F)OCO2`, the melting point was 219 to 220 °C.
With `Cc1ccc(Nn2c(-c3ccccc3)c(C)[nH]c2=S)cc1Cl` the melting point was 190 °C.
Molecule `N=C(NO)c1ccc2cc(O)c(O)cc2c1` has a melting point of 238 to 243 °C.
Molecule `Cn1c(C(F)(F)F)cc(=O)n(-c2c(F)cc(Cl)c3cc(-c4ccccc4)oc23)c1=O` has a melting point of 215 to 216 °C.
`CN=C(NC#N)Nc1ccc2c(c1)CCC1CC(=O)NN=C21` (configuration not stated) showed a melting point of 289 °C.
In the case of `O=C(c1ccc(F)cc1F)C1CCN(CC2=Cc3ccccc32)CC1`, the melting point was 70 °C.
`CCCCc1noc(-c2ccc(C(=O)NCCC(C)(C)C)cc2)n1` gave a melting point of 95 to 97 °C.
Work on `CC(C)c1cccc(C(C)C)c1NC(=O)NCC1(c2ccc3ccccc3c2)CCCC1` yielded a melting point of 152 to 154 °C.
`Cn1c(COc2ccc(CC3SC(=O)NC3=O)cc2)nc2cccnc21` (configuration not stated) showed a melting point of 223 to 225 °C.
For `CCOC(=O)N1C=CC(c2ccc(F)cc2)C(C(=O)OC)=C1` (configuration not stated), the melting point was 83 to 85 °C.
For `O=C(Cc1ccc(O)c2[nH]ncc12)NCc1ccccc1`, the melting point was 188 to 190 °C.
`COc1cc2c(cc1O)CCN(Cc1ccc(OC)c(OC)c1)C2` gave a melting point of 146 to 147 °C.
